Reference: patent US20240101572A1, “DIHYDROOXADIAZINONE COMPOUND AND PHARMACEUTICAL USE THEREOF” (Japan Tobacco Inc., priority 2022, published 2024)
pIC50: −log10 of the molar value. Where two headings read alike, the source gives them in different places.

How the values were obtained:
[1] = target: full-length human PLD1 (Homo sapiens (Human), UniProt Q13393); assay: Evaluation of human PLD1 enzyme inhibitory activity (Amplex Red / choline oxidase fluorescence); type: biochemical
Outline: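 Fluorescence read-out couples choline to Amplex Red via choline oxidase and peroxidase after a 60 min room-temperature reaction. Enzyme: FLAG-tagged full-length human PLD1 from Expi293F cells, anti-FLAG purified; substrate diheptanoyl phosphatidylcholine; HEPES pH 7.5 assay buffer with 0.01% NP-40, 0.1% BSA, 5% DMSO final.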

[2] = target: full-length human PLD2 (Homo sapiens (Human), UniProt O14939); assay: Evaluation of human PLD2 enzyme inhibitory activity (Amplex Red / choline oxidase fluorescence); type: biochemical
Outline: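 Released choline was read by Amplex Red fluorescence coupled to choline oxidase and HRP after a 60 min room-temperature reaction. Substrate was diheptanoyl phosphatidylcholine, added as a 6 mmol/L solution, and enzyme was FLAG-tagged full-length human PLD2 from Expi293F, added as a 6 nmol/L solution. Buffer was 50 mM HEPES pH 7.5 with 5% final DMSO.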

[3] = full-length human PLD1 enzyme, read-out: PLD1 IC50
[4] = full-length human PLD2 enzyme, read-out: PLD2 IC50
[5] = column 1 of continuation tables 2-12 to 2-14, read-out: human PLD1 enzyme inhibitory activity IC50
[6] = column 2 of continuation tables 2-12 to 2-14, read-out: human PLD2 enzyme inhibitory activity IC50

full-length human PLD1, sequence (Q13393 other isoform, or with tags, fused parts or gaps): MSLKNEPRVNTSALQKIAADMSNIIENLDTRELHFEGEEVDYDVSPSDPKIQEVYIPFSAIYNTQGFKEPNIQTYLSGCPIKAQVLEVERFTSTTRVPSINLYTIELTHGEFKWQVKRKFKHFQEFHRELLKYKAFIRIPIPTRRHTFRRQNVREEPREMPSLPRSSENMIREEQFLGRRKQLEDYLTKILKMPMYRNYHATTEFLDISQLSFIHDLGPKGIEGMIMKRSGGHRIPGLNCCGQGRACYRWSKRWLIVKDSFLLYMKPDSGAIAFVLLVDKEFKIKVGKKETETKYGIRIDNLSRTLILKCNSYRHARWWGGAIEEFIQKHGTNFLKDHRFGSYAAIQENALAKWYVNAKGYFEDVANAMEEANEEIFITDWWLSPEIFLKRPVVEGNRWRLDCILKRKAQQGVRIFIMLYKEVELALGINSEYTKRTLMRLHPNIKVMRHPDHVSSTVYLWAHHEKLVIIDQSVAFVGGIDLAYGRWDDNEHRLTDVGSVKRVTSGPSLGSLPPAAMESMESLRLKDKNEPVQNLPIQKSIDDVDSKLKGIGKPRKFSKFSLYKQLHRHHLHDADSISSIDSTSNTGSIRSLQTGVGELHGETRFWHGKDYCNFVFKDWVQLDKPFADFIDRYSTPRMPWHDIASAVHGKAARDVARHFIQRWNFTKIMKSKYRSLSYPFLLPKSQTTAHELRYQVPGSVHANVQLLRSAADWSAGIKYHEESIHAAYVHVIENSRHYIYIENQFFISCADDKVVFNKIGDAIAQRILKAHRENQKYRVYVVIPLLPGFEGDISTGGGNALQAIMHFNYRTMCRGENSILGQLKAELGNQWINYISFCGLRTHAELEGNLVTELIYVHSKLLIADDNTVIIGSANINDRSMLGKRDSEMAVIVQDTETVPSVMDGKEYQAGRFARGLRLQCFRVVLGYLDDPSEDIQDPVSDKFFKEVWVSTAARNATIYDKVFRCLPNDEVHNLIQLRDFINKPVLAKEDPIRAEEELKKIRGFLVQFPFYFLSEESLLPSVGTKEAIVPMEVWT
full-length human PLD2, sequence (O14939 whole entry): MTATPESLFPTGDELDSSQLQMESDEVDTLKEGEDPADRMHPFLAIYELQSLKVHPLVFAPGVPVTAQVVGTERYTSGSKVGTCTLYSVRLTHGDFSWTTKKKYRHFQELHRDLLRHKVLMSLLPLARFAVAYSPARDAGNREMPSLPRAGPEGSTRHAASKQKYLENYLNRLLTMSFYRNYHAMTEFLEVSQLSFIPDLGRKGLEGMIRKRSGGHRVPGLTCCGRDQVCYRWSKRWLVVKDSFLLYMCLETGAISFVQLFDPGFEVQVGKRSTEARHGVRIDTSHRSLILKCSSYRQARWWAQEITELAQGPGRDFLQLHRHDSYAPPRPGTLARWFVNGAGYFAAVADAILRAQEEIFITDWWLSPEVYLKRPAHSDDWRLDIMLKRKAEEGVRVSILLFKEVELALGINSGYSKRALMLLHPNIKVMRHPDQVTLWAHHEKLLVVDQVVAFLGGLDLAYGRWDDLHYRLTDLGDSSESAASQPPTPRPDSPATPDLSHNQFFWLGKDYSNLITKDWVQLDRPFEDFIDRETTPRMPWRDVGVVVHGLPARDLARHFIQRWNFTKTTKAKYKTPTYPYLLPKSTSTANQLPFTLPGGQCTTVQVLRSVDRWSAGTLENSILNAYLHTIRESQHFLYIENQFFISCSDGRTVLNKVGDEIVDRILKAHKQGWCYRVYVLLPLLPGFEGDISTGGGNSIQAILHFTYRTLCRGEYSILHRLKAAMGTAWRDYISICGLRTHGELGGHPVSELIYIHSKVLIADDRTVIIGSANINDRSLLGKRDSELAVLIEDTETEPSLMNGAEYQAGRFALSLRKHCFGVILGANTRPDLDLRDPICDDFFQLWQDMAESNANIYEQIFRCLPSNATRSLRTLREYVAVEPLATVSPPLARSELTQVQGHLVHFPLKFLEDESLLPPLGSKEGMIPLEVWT

SMILES	pIC50 [1, 3]	pIC50 [2, 4]	also measured
C[C@@H](C[C@H]1CC[C@]2(CC1)OC(=O)NN=C2c1ccc(S(C)(=O)=O)cc1Br)NC(=O)c1cc(Cl)no1 [Example 48]	7.85	> 8.00	–
CNC(=O)C(=O)N[C@@H](C)C[C@H]1CC[C@]2(CC1)OC(=O)NN=C2c1cc(F)ccc1Br [Example 157]	> 8.00	> 8.00	–
CNC(=O)C(=O)N[C@@H](C)CN1CCC2(CC1)OC(=O)NN=C2c1cc(C(=O)OC)ccc1Br [Example 2-033]	7.46	> 8.00	–
CNC(=O)C(=O)N[C@@H](C)CN1CCC2(CC1)OC(=O)NN=C2c1ccc(Br)cc1C(F)(F)F [Example 328]	7.32	7.47	–
Cc1cc(C(=O)N[C@@H](C)C[C@H]2CC[C@]3(CC2)OC(=O)NN=C3c2ccc(S(C)(=O)=O)cc2Br)[nH]n1 [Example 31]	7.62	> 8.00	–
[2H]C([2H])([2H])NC(=O)C(=O)NC(C)CN1CCC2(CC1)OC(=O)NN=C2c1cc(C#N)ccc1Cl (centres unmarked) [Example 2-008]	7.21	7.96	–
CNC(=O)C(=O)N[C@@H](C)C[C@H]1CC[C@]2(CC1)OC(=O)NN=C2c1cnc(N2CC(C(F)F)C2)cc1C [Example 227]	7.72	> 8.00	–
C[C@@H](C[C@H]1CC[C@]2(CC1)OC(=O)NN=C2c1ccc(F)cc1Cl)NC(=O)c1cc(Cl)no1 [Example 63]	> 8.00	> 8.00	–
CNC(=O)C(=O)N[C@@H](C)C[C@H]1CC[C@]2(CC1)OC(=O)NN=C2c1cc(C(=O)N(C)C)ccc1Br [Example 2-036]	7.77	> 8.00	–
C[C@@H](C[C@H]1CC[C@]2(CC1)OC(=O)NN=C2c1ccc(F)cc1)NC(=O)c1cc2ccccc2o1 [Example 7]	7.52	7.36	–
C[C@@H](C[C@H]1CC[C@]2(CC1)OC(=O)NN=C2c1cc(C#N)ccc1Br)NC(=O)c1ccn(C)n1 [Example 2-070]	7.17	7.42	–
CNC(=O)C(=O)N[C@@H](C)C[C@H]1CC[C@]2(CC1)OC(=O)NN=C2c1cnc(N2CC(C(F)(F)F)C2)cc1C [Example 192]	7.68	> 8.00	–
Cc1ccncc1C1=NNC(=O)O[C@]12CC[C@@H](C[C@H](C)NC(=O)c1nc3ccccc3[nH]1)CC2 [Example 146]	7.70	> 8.00	–
C[C@@H](C[C@H]1CC[C@]2(CC1)OC(=O)NN=C2c1ccc(F)cc1Br)NC(=O)c1cn(C)nn1 [Example 76]	7.77	7.77	–
C[C@@H](C[C@H]1CC[C@]2(CC1)OC(=O)NN=C2c1ccc(F)cc1Br)NC(=O)N1CCOC2(CC2)C1 [Example 283]	7.37	7.32	–
Cc1cc(Cl)c(C2=NNC(=O)O[C@]23CC[C@@H](C[C@H](C)NC(=O)c2cc(C)n[nH]2)CC3)cn1 [Example 231]	7.62	7.92	–
C[C@@H](C[C@H]1CC[C@]2(CC1)OC(=O)NN=C2c1ccc(F)cc1Br)NC(=O)C(F)Cl (mixture of isomers) [Example 278]	6.61	5.93	–
C[C@@H](C[C@H]1CC[C@]2(CC1)OC(=O)NN=C2c1ccc(F)cc1Br)NC(=O)C1(O)COC1 [Example 123]	6.69	6.30	–
C[C@@H](CN1CCC2(CC1)OC(=O)NN=C2c1ccc(C#N)cc1Br)NC(=O)c1cnn(C)c1 [Example 336]	7.48	> 8.00	–
CC(C)S(=O)(=O)c1ccc(C2=NNC(=O)O[C@]23CC[C@@H](C[C@H](C)NC(=O)c2cc(Cl)no2)CC3)c(Br)c1 [Example 67]	> 8.00	> 8.00	–
[2H]C([2H])([2H])NC(=O)C(=O)N[C@@H](C)C[C@]1(OC)CC[C@@]2(CC1)OC(=O)NN=C2c1cccc(C(F)(F)F)c1Br [Example 2-129]	–	–	pIC50 [1, 5]: 7.60; pIC50 [2, 6]: > 8.00
Cc1ccc(C(=O)N[C@@H](C)C[C@H]2CC[C@]3(CC2)OC(=O)NN=C3c2ccc(F)cc2Br)nn1 [Example 252]	6.76	6.47	–
Cc1cc(C(=O)N[C@@H](C)C[C@H]2CC[C@]3(CC2)OC(=O)NN=C3c2cnc(N3CC4CCC(C3)O4)cc2C)[nH]n1 [Example 251]	7.77	> 8.00	–
C[C@@H](CN1CCC2(CC1)OC(=O)NN=C2c1cc(C#N)ccc1Br)NC(=O)c1cn(C)cn1 [Example 2-054]	7.43	> 8.00	–
Cc1cc(C(=O)N[C@@H](C)CN2CCC3(CC2)OC(=O)NN=C3c2ccc(Br)cc2C(F)(F)F)[nH]n1 [Example 331]	7.49	7.66	–
C[C@@H](C[C@H]1CC[C@]2(CC1)OC(=O)NN=C2c1cnc(N2CCOCC2)cc1Cl)NC(=O)N1CCn2nccc2C1 [Example 275]	7.60	> 8.00	–

SMILES	pIC50 [1, 3]	pIC50 [2, 4]	also measured
CNC(=O)C(=O)N[C@@H](C)C[C@H]1CC[C@]2(CC1)OC(=O)NN=C2c1ccc(F)cc1Br [Example 14]	8.00	> 8.00	–
C[C@@H](C[C@H]1CC[C@]2(CC1)OC(=O)NN=C2c1ccc(F)cc1Br)NC(=O)C1CC1 [Example 21]	6.51	6.46	–
CNC(=O)C(=O)N[C@@H](C)C[C@H]1CC[C@]2(CC1)OC(=O)NN=C2c1cc(C(F)(F)F)ncc1Br [Example 2-075]	7.80	> 8.00	–
Cc1cc(C(=O)N[C@@H](C)CN2CCC3(CC2)OC(=O)NN=C3c2ccc(C#N)cc2Br)on1 [Example 2-062]	7.60	7.60	–
C[C@@H](C[C@]1(C#N)CC[C@@]2(CC1)OC(=O)NN=C2c1cc(C#N)ccc1Br)NC(=O)c1cc(Cl)no1 [Example 2-068]	> 8.00	> 8.00	–
CNC(=O)C(=O)N[C@@H](C)C[C@H]1CC[C@]2(CC1)OC(=O)NN=C2c1cnc(N2CC3(COC3)C2)cc1C [Example 191]	7.42	> 8.00	–
[2H]C([2H])([2H])NC(=O)C(=O)N[C@@H](C)C[C@]1(OC)CC[C@@]2(CC1)OC(=O)NN=C2c1ccc(F)cc1Br [Example 2-135]	–	–	pIC50 [1, 5]: 7.70; pIC50 [2, 6]: > 8.00
CNC(=O)C(=O)N[C@@H](C)C[C@H]1CC[C@]2(CC1)OC(=O)NN=C2c1ccc(F)cc1C [Example 55]	7.82	> 8.00	–
CNC(=O)C(=O)N[C@@H](C)CN1CCC2(CC1)OC(=O)NN=C2c1ccc(C#N)cc1Cl [Example 168]	7.25	7.46	–
C[C@@H](C[C@]1(C#N)CC[C@@]2(CC1)OC(=O)NN=C2c1cc(OC(F)F)ccc1Br)NC(=O)c1cn(C)cn1 [Example 2-078]	> 8.00	> 8.00	–
CNC(=O)C(=O)N[C@@H](C)C[C@H]1CC[C@]2(CC1)OC(=O)NN=C2c1ccccc1S(C)(=O)=O [Example 75]	5.79	5.70	–
C[C@@H](CN1CCC2(CC1)OC(=O)NN=C2c1ccc(F)cc1Br)NC(=O)c1cnn(C)c1 [Example 254]	7.54	> 8.00	–
CNC(=O)C(=O)N[C@@H](C)C[C@H]1CC[C@]2(CC1)OC(=O)NN=C2c1cnc(C(=O)O)cc1C [Example 186]	–	–	inhibition at 10 µM ([1]; 10 μM compound, read-out: PLD1 inhibition rate at 10 μM): 33%; inhibition at 10 µM ([1]; read-out: inhibition rate of PLD1 at 10 μM compound): 33%; inhibition at 10 µM ([2]; 10 μM compound, read-out: PLD2 inhibition rate at 10 μM): 18%; inhibition at 10 µM ([2]; read-out: inhibition rate of PLD2 at 10 μM compound): 18%
C[C@@H](C[C@H]1CC[C@]2(CC1)OC(=O)NN=C2c1cn(C)nc1I)NC(=O)c1cc(Cl)no1 [Example 2-046]	7.62	6.93	–
CNC(=O)C(=O)N[C@@H](C)C[C@H]1CC[C@]2(CC1)OC(=O)NN=C2c1cnc(N2C[C@H]3C[C@@H]2CO3)cc1Cl [Example 243]	7.62	> 8.00	–
C[C@@H](C[C@H]1CC[C@]2(CC1)OC(=O)NN=C2c1ccc(OC(F)F)cc1Br)NC(=O)c1cc(Cl)n[nH]1 [Example 144]	7.96	> 8.00	–
C[C@@H](C[C@H]1CC[C@]2(CC1)OC(=O)NN=C2c1cc(C(C)(C)O)ccc1Br)NC(=O)c1cnn(C)c1 [Example 2-027]	7.89	> 8.00	–
C[C@H](NC(=O)c1cnn(C)c1)[C@H](C)[C@H]1CC[C@]2(CC1)OC(=O)NN=C2c1cc(C#N)ccc1Br [Example 339]	7.41	8.00	–
CNC(=O)C(=O)N[C@@H](C)C[C@H]1CC[C@]2(CC1)OC(=O)NN=C2c1cnc(C(C)(C)O)cc1C [Example 185]	7.17	7.19	–
CNC(=O)C(=O)N[C@@H](C)C[C@H]1CC[C@]2(CC1)OC(=O)NN=C2c1cc(OC)c(F)cc1Br [Example 2-050]	7.92	> 8.00	–
[2H]C([2H])([2H])NC(=O)C(=O)N[C@@H](C)C[C@]1(OC)CC[C@@]2(CC1)OC(=O)NN=C2c1ccc(C#N)cc1Br [Example 2-130]	–	–	pIC50 [1, 5]: 7.49; pIC50 [2, 6]: > 8.00
COc1cc(C)c(C2=NNC(=O)O[C@]23CC[C@@H](C[C@H](C)NC(=O)C(=O)NC2CC2)CC3)cn1 [Example 220]	7.38	7.48	–
CNC(=O)C(=O)N[C@@H](C)C[C@H]1CC[C@]2(CC1)OC(=O)NN=C2c1ccccc1SC(F)(F)F [Example 2-019]	7.92	> 8.00	–
CNC(=O)C(=O)N[C@@H](C)C[C@H]1CC[C@]2(CC1)OC(=O)NN=C2c1cnc(N2CC3CCC(C2)O3)cc1Cl [Example 246]	7.82	> 8.00	–
C[C@@H](C[C@H]1CC[C@]2(CC1)OC(=O)NN=C2c1cc(C#N)ccc1Br)NC(=O)C(=O)NC1CC1 [Example 292]	7.64	> 8.00	–
